In US9133207B2, “Tetrandrine derivatives with substituted 5-carbon, preparation method and use thereof” (Hangzhou Bensheng Pharmaceutical Co., Ltd., priority 2011, dated 2015):
≈ marks a conversion by molar mass, not a printed value.

Legend:
[1] = system: PANC-1 (pancreatic cancer); experiment: Solid tumor cell growth inhibition, MTT, 72 h (Example 7); assay type: cell-based, human; details: 72 h, MTT, PANC-1; for IC50 / IC90: Homo sapiens
Procedure: (§1) Human solid tumor cell lines: Hep-2 (laryngeal carcinoma), A549 (human lung cancer), CaES-17 (esophageal cancer cell), PC-3 (prostate cancer), CNE (nasopharyngeal carcinoma cell) and SK-OV-3 (ovarian cancer cell), all of which are purchased from China Center For Type Culture Collection; RKO (human colon adenocarcinoma cell), MGC 803 (human gastric cancer cell), MG63 (osteosarcoma), and U87 MG (malignant glioma cell), all of which are purchased from Fuxiang Bio-tech Co. Ltd., Shanghai, China; PANC-1 (pancreatic cancer), Huh? (human liver cancer cell), Becap37 (human breast cancer cell), and Hela (human cervical cancer cell), all of which are donated by Cancer Research Institute of Zhejiang University, China.
(§2) Reagents: the same as in Example 5.
(§3) Obtaining 4000 well-growing human solid tumor cells and inoculating them into wells of a 96-well cell culture plate. The culture medium is DMEM High Glucose cell culture medium containing 10% fetal bovine serum. The plate is placed in a carbon dioxide cell incubator (5% CO2) at 37° C. and incubated for 24 hours. After been added with tetrandrine derivatives of different concentration and mixing uniformly, the plate is placed in a carbon dioxide cell incubator (5% CO2) at 37° C. and incubated for 72 hours. Then the viable cell concentration is determined by the MTT method and the cell viability (%) after drug treatment is calculated. In this experiment, the cell viability of control group (not treated with any compound) is set as 100%.

MG63 (osteosarcoma) = experiment: as above; assay type: cell-based, human; details: 72 h, MTT, MG-63; for IC50 / IC90: Homo sapiens
Procedure: as §1, §2, §3

[2] = system: CaES-17 (esophageal cancer cell); experiment: as above; assay type: cell-based, human; details: 72 h, MTT, CAES-17; for IC50 / IC90: Homo sapiens, CaEs17
Procedure: as §1, §2, §3

PC-3 (prostate cancer) = experiment: as above; assay type: cell-based, human; details: 72 h, MTT, PC-3
Procedure: as §1, §2, §3

A549 (human lung cancer) = experiment: as above; assay type: cell-based; details: 72 h, MTT, A549; for IC50 / IC90: Homo sapiens
Procedure: as §1, §2, §3

[3] = system: MGC 803 (human gastric cancer cell); experiment: as above; assay type: cell-based; details: for IC50 / IC90: Homo sapiens
Procedure: as §1, §2, §3

[4] = system: Becap37 (human breast cancer cell); experiment: as above; assay type: cell-based; details: 72 h, MTT, Becap-37; for IC50 / IC90: Homo sapiens
Procedure: as §1, §2, §3

[5] = system: Huh7 (human liver cancer cell); experiment: as above; assay type: cell-based; details: 72 h, MTT, Huh-7; for IC50 / IC90: Homo sapiens
Procedure: as §1, §2, §3

[6] = system: Kasumi-1 (acute myeloid leukemia M2 type, AML-M2); experiment: Leukemia cell growth inhibition, MTT, 72 h (Example 5); assay type: cell-based, human; details: for IC50 / IC90: Homo sapiens, Kasumi 1
Description: (§4) Leukemia cell lines: leukemia cell lines: K562/adr (drug-resistant, chronic myeloid leukemia, CML), NB4 (acute promyelocytic leukemia, AML), Kasumi-1 (acute myeloid leukemia M2 type, AML-M2), Jurkat (acute lymphoblastic leukemia, ALL), all of which are donated by Cancer Research Institute of Zhejiang University, China; and H9 (acute lymphoblastic leukemia, ALL), which is purchased from China Center for Type Culture Collection.
(§5) Reagents: The standard sample of tetrandrine (TTD) is purchased from Ci Yuan Biotechnology Co., Ltd., Shaanxi, China; and the 5-substituted tetrandrine derivatives of the present invention.
(§6) Obtaining 6000 well-growing leukemia cells and inoculating them into wells of a 96-well cell culture plate. The culture medium is a 1640 cell culture medium containing 10% fetal bovine serum. After adding the tetrandrine derivatives of different concentrations and mixing uniformly, placing the plate in a carbon dioxide cell incubator (5% CO2) at 37° C. and incubating for 72 hours. Then the viable cell concentration is determined by the MTT method.

[7] = system: K562/adr (drug-resistant, chronic myeloid leukemia, CML); experiment: as above; assay type: cell-based, human; details: 72 h, MTT; for IC50 / IC90: Homo sapiens, K562/Adr
Description: as §4, §5, §6

[8] = system: Jurkat (acute lymphoblastic leukemia, ALL); experiment: as above; assay type: cell-based, human; details: 72 h, MTT; for IC50 / IC90: Homo sapiens, Jurkat
Description: as §4, §5, §6

[9] = system: H9 (acute lymphoblastic leukemia, ALL); experiment: as above; assay type: cell-based, human; details: 72 h, MTT; for IC50 / IC90: Homo sapiens
Description: as §4, §5, §6

[10] = system: RPMI8226 (multiple myeloma); experiment: Multiple myeloma cell growth inhibition, MTT, 72 h (Example 6); assay type: cell-based, human; details: 72 h, MTT, RPMI8226; for IC50 / IC90: Homo sapiens, RPMI-8226
Procedure: Multiple myeloma and lymphoma cell lines: RPMI8226 (multiple myeloma), purchased from Fuxiang Bio-tech Co. Ltd., Shanghai, China.
as §2
Obtaining 6000 well-growing leukemia cells and inoculating them into wells of a 96-well cell culture plate. The culture medium is a 1640 cell culture medium containing 10% fetal bovine serum. After adding the tetrandrine derivatives of different concentrations and mixing uniformly, placing the plate in a carbon dioxide cell incubator (5% CO2) at 37° C. and incubated for 72 hours. Then the viable cell concentration is determined by the MTT method.

COc1ccc2cc1Oc1ccc(cc1)C[C@H]1c3cc(c(OC)cc3CCN1C)Oc1c(OC)c(OC)c(CO)c3c1[C@H](C2)N(C)CC3 [BS-TE-213]
PANC-1 IC50 [1]: >10 µg/mL
PANC-1 IC90 [1]: >10 µg/mL
MG-63 IC50 (MG63 (osteosarcoma)): 9.93 µg/mL
MG-63 IC90 (MG63 (osteosarcoma)): 26.11 µg/mL
CAES-17 IC50 [2]: 9.89 µg/mL
CAES-17 IC90 [2]: 30.16 µg/mL
PC-3 IC50 (PC-3 (prostate cancer)): >10 µg/mL
PC-3 IC90 (PC-3 (prostate cancer)): >10 µg/mL
A549 IC50 (A549 (human lung cancer)): >16 µg/mL
A549 IC90 (A549 (human lung cancer)): >16 µg/mL
MGC-803 IC50 [3]: 18.95 µg/mL
MGC-803 IC90 [3]: 64.43 µg/mL
Becap-37 IC50 [4]: 9.95 µg/mL
Becap-37 IC90 [4]: >10 µg/mL
Huh-7 IC50 [5]: 8.54 µg/mL
Huh-7 IC90 [5]: 15.09 µg/mL
Kasumi-1 IC50 [6]: 7.74 µg/mL
Kasumi-1 IC90 [6]: >16 µg/mL
K562/ADR IC50 [7]: 3.70 µg/mL
K562/ADR IC90 [7]: 11.11 µg/mL
Jurkat IC50 [8]: >16 µg/mL
Jurkat IC90 [8]: >16 µg/mL
H9 IC50 [9]: >16 µg/mL
H9 IC90 [9]: >16 µg/mL
RPMI8226 IC50 [10]: 1.95 µg/mL
RPMI8226 IC90 [10]: 8 µg/mL

COc1ccc2cc1Oc1ccc(cc1)C[C@H]1c3cc(c(OC)cc3CCN1C)Oc1c(OC)c(OC)c(COCC3CCOC3)c3c1[C@H](C2)N(C)CC3 (stereo partly shown) [BS-TE-417]
IC50 [1]: 4.66 µg/mL (≈ 6.32 µM)
IC90 [1]: 9.5 µg/mL (≈ 12.9 µM)
IC50 (MG63 (osteosarcoma)): 1.06 µg/mL (≈ 1.44 µM)
IC90 (MG63 (osteosarcoma)): 3.66 µg/mL (≈ 4.97 µM)
IC50 [2]: 2.04 µg/mL (≈ 2.77 µM)
IC90 [2]: 12 µg/mL (≈ 16.3 µM)
IC50 (PC-3 (prostate cancer); Homo sapiens): 4.1 µg/mL (≈ 5.56 µM)
IC90 (PC-3 (prostate cancer); Homo sapiens): 7.91 µg/mL (≈ 10.7 µM)
IC50 (A549 (human lung cancer)): 3.88 µg/mL (≈ 5.27 µM)
IC90 (A549 (human lung cancer)): 10.1 µg/mL (≈ 13.7 µM)
IC50 [3]: 5.09 µg/mL (≈ 6.91 µM)
IC90 [3]: 8.27 µg/mL (≈ 11.2 µM)
IC50 [4]: 1.77 µg/mL (≈ 2.4 µM)
IC90 [4]: 3.79 µg/mL (≈ 5.14 µM)
IC50 [5]: 2.48 µg/mL (≈ 3.37 µM)
IC90 [5]: 3.76 µg/mL (≈ 5.1 µM)
IC50 [6]: 1.8 µg/mL (≈ 2.44 µM)
IC90 [6]: 9.69 µg/mL (≈ 13.1 µM)
IC50 [7]: 0.88 µg/mL (≈ 1.19 µM)
IC90 [7]: 4.63 µg/mL (≈ 6.28 µM)
IC50 [8]: 3.64 µg/mL (≈ 4.94 µM)
IC90 [8]: 12.1 µg/mL (≈ 16.5 µM)
IC50 [9]: 2.03 µg/mL (≈ 2.75 µM)
IC90 [9]: 4.37 µg/mL (≈ 5.93 µM)
IC50 [10]: 0.27 µg/mL (≈ 0.366 µM)
IC90 [10]: 2 µg/mL (≈ 2.71 µM)

COc1ccc2cc1Oc1ccc(cc1)C[C@H]1c3cc(c(OC)cc3CCN1C)Oc1c(OC)c(OC)c(CNc3nccs3)c3c1[C@H](C2)N(C)CC3 [BS-TE-320]
IC50 [1]: 3.52 µg/mL (≈ 4.79 µM)
IC90 [1]: 9.25 µg/mL (≈ 12.6 µM)
IC50 (MG63 (osteosarcoma)): 1.1 µg/mL (≈ 1.5 µM)
IC90 (MG63 (osteosarcoma)): 2.18 µg/mL (≈ 2.97 µM)
IC50 [2]: 2.11 µg/mL (≈ 2.87 µM)
IC90 [2]: 12.2 µg/mL (≈ 16.6 µM)
IC50 (A549 (human lung cancer)): 2.98 µg/mL (≈ 4.05 µM)
IC90 (A549 (human lung cancer)): 7.85 µg/mL (≈ 10.7 µM)
IC50 [3]: 1.72 µg/mL (≈ 2.34 µM)
IC90 [3]: 2.76 µg/mL (≈ 3.76 µM)
IC50 [4]: 1.6 µg/mL (≈ 2.18 µM)
IC90 [4]: 2.17 µg/mL (≈ 2.95 µM)
IC50 [5]: 2 µg/mL (≈ 2.72 µM)
IC90 [5]: 3.92 µg/mL (≈ 5.33 µM)
IC50 [6]: 0.78 µg/mL (≈ 1.06 µM)
IC90 [6]: 3.65 µg/mL (≈ 4.97 µM)
IC50 [7]: 0.84 µg/mL (≈ 1.14 µM)
IC90 [7]: 3.36 µg/mL (≈ 4.57 µM)
IC50 [8]: 2 µg/mL (≈ 2.72 µM)
IC90 [8]: 6.19 µg/mL (≈ 8.42 µM)
IC50 [9]: 1.98 µg/mL (≈ 2.69 µM)
IC90 [9]: 3.36 µg/mL (≈ 4.57 µM)
IC50 [10]: 0.06 µg/mL (≈ 0.0816 µM)
IC90 [10]: 2 µg/mL (≈ 2.72 µM)
